Data on 27 molecules can be found in US8129398B2 (priority 2008, dated 2012).

The target of the assay is T1, HIV-integrase (Human immunodeficiency virus type 1 group M subtype B, UniProt P12497).
T1 construct: Recombinant integrase (0.26 ng) was incubated with the beads
Description: HIV-Integrase Inhibition Activity (SPA bead integration assay with P33 labeled target DNA). The assay is classed as biochemical. The note with it: recombinant integrase, class symbols; read-out: in vitro activity. In short, it runs like this: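 Strand integration read as bead-proximity CPM after P33 target DNA (0.1 fmol) and inhibitor were added to washed integrase–substrate DNA complexes on SPA beads. Enzyme bound 90 min at 37° C; EDTA (10 mM final) terminated reaction; IC50 graded A/B/C.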
In the case of `CC(C)(O)C(=O)NC12CCC(CC1)Cn1c2nc(C(=O)NCc2ccc(F)cc2)c(O)c1=O` [Example 261, 7,10-Ethanopyrimido[1,2-a]azepine-2-carboxamide, N-[(4-fluorophenyl)methyl]-4,6,7,8,9,10-hexahydro-3-hydroxy-10-[(2-hydroxy-2-methyl-1-oxopropyl)amino]-4-oxo-], the IC50 was less than 10 nM.
As to `CN(C)C(=O)C(=O)N1CCC[C@H]1C(=O)NC12CCC(CC1)Cn1c2nc(C(=O)NCc2ccc(F)cc2)c(O)c1=O` [Example 269, 7,10-Ethanopyrimido[1,2-a]azepine-2-carboxamide, 10-[[[(2S)-1-[2-(dimethylamino)-1,2-dioxoethyl]-2-pyrrolidinyl]carbonyl]amino]-N-[(4-fluorophenyl)methyl]-4,6,7,8,9,10-hexahydro-3-hydroxy-4-oxo-], the IC50 is less than 10 nM.
As to `CS(=O)(=O)N1CCN(C(=O)N2CCN(C(=O)C(=O)NC34CCC(CC3)Cn3c4nc(C(=O)NCc4ccc(F)cc4)c(O)c3=O)CC2)C1=O` [Example 144, N-(4-Fluorobenzyl)-3-hydroxy-10-(((4-((3-(methylsulfonyl)-2-oxo-1-imidazolidinyl)carbonyl)-1-piperazinyl)(oxo)acetyl)amino)-4-oxo-4,6,7,8,9,10-hexahydro-7,10-ethanopyrimido[1,2-a]azepine-2-carboxamide], the IC50 is less than 10 nM.
Consider `CN(CCF)C(=O)C(=O)NC12CCC(CCn3c1nc(C(=O)NCc1ccc(F)cc1)c(O)c3=O)C2` (stereo not drawn) [Example 209, Ethanediamide, N-(2-fluoroethyl)-N′-[2-[[[(4-fluorophenyl)methyl]amino]carbonyl-7,8,9,10-tetrahydro-3-hydroxy-4-oxo-8,11-methano-4H-pyrimido[1,2-a]azocin-1](6H)-yl]-N-methyl], for which the IC50 is less than 10 nM.
For `O=C(NC12CCC(CC1)Cn1c2nc(C(=O)NCc2ccc(F)cc2)c(O)c1=O)C(=O)N1CC(F)(F)C1` [Example 98, 10-(((3,3-Difluoro-1-azetidinyl) (oxo)acetyl)amino)-N-(4-fluorobenzyl)-3-hydroxy-4-oxo-4,6,7,8,9,10-hexahydro-7,10-ethanopyrimido[1,2-a]azepine-2-carboxamide] the value was less than 10 nM; for `CN(C)C(=O)C(=O)NC12CCC(CCn3c1nc(C(=O)NCc1ccc(F)c(Cl)c1)c(O)c3=O)C2` (stereo not drawn) [Example 213, Ethanediamide, N′-[2-[[[(3-chloro-4-fluorophenyl)methyl]amino]carbonyl]-7,8,9,10-tetrahydro-3-hydroxy-4-oxo-8,11-methano-4H-pyrimido[1,2-a]azocin-11(6H)-yl]-N,N-dimethyl-], less than 10 nM; for `Cn1nc(C(C)(C)C)cc1C(=O)NC12CCC(CC1)n1c2nc(C(=O)NCc2ccc(F)cc2)c(O)c1=O` [Example 15, 6,9-Ethano-4H-pyrido[1,2-a]pyrimidine-2-carboxamide, 9-[[[3-(1,1-dimethylethyl)-1-methyl-1H-pyrazol-5-yl]carbonyl]amino]-N-[(4-fluorophenyl)methyl]-6,7,8,9-tetrahydro-3-hydroxy-4-oxo-], less than 10 nM.
For `O=C(NC12CCC(CCn3c1nc(C(=O)NCc1ccc(F)cc1)c(O)c3=O)C2)C(=O)N1CC[C@H](F)C1` (stereo partly drawn) [Example 207, 8,11-Methano-4H-pyrimido[1,2-a]azocine-2-carboxamide, N-[(4-fluorophenyl)methyl]-11-[[2-[(3S)-3-fluoro-1-pyrrolidinyl]-1,2-dioxoethyl]amino]-6,7,8,9,10,11-hexahydro-3-hydroxy-4-oxo-], the IC50 was less than 10 nM.
For `CN(CC(F)(F)F)C(=O)C(=O)NC12CCC(CC1)Cn1c2nc(C(=O)NCc2ccc(F)cc2)c(O)c1=O` [Example 50, N′-(2-((4-Fluorobenzyl)carbamoyl)-3-hydroxy-4-oxo-6,7,8,9-tetrahydro-7,10-ethanopyrimido[1,2-a]azepin-10(4H)-yl)-N-methyl-N-(2,2,2-trifluoroethyl)ethanediamide] the value was less than 10 nM; for `CC(=O)Nc1ccc(C(=O)NC23CCC(CC2)Cn2c3nc(C(=O)NCc3ccc(F)cc3)c(O)c2=O)cn1` [Example 320, 7,10-Ethanopyrimido[1,2-a]azepine-2-carboxamide, 10-[[[6-(acetylamino)-3-pyridinyl]carbonyl]amino]-N-[(4-fluorophenyl)methyl]-4,6,7,8,9,10-hexahydro-3-hydroxy-4-oxo-], less than 10 nM.
As for `O=C(NC12CCC(CC1)Cn1c2nc(C(=O)NCc2ccc(F)cc2)c(O)c1=O)c1ccnc(N2CCOCC2)c1` [Example 317, 7,10-Ethanopyrimido[1,2-a]azepine-2-carboxamide, N-[(4-fluorophenyl)methyl]-4,6,7,8,9,10-hexahydro-3-hydroxy-10-[[[2-(4-morpholinyl)-4-pyridinyl]carbonyl]amino]-4-oxo-], the IC50 is less than 10 nM.
On to `CN(C)C(=O)C(=O)NC12CCC(CC1)Cn1c2nc(C(=O)NCCCn2ccnc2)c(O)c1=O` [Example 350], for which the IC50 is greater than 100 nM.
As for `CN(C)C(=O)C(=O)NC12CCC(CC1)Cn1c2nc(C(=O)NCCCN2CCCC2=O)c(O)c1=O` [Example 337], the figure is greater than 100 nM.
As for `Cn1cnc(C(=O)NC23CCC(CC2)Cn2c3nc(C(=O)NCc3ccc(F)cc3)c(O)c2=O)n1` [Example 54, N-(4-Fluorobenzyl)-3-hydroxy-10-(((1-methyl-1H-1,2,4-triazol-3-yl)carbonyl)amino)-4-oxo-4,6,7,8,9,10-hexahydro-7,10-ethanopyrimido[1,2-a]azepine-2-carboxamide], the figure is less than 10 nM.
As for `Cc1c(C(=O)NC23CCC(CC2)Cn2c3nc(C(=O)NCc3ccc(F)cc3)c(O)c2=O)ncn1C` [Example 242, 7,10-Ethanopyrimido[1,2-a]azepine-2-carboxamide, 10-[[(1,5-dimethyl-1H-imidazol-4-yl)carbonyl]amino]-N-[(4-fluorophenyl)methyl]-4,6,7,8,9,10-hexahydro-3-hydroxy-4-oxo-], the figure is less than 10 nM; as for `CN(C)C(=O)C(=O)NC12CCC(CC1)Cn1c2nc(C(=O)NCc2ccc(F)cc2)c(O)c1=O` [Example 57, N′-(2-((4-Fluorobenzyl)carbamoyl)-3-hydroxy-4-oxo-6,7,8,9-tetrahydro-7,10-ethanopyrimido[1,2-a]azepin-10(4H)-yl)-N,N-dimethylethanediamide], less than 10 nM.
Regarding `CCN(C)C(=O)C(=O)NC12CCC(CC1)Cn1c2nc(C(=O)NCc2ccc(F)cc2)c(O)c1=O` [Example 101, N-Ethyl-N′-(2-((4-fluorobenzyl)carbamoyl)-3-hydroxy-4-oxo-6,7,8,9-tetrahydro-7,10-ethanopyrimido[1,2-a]azepin-10(4H)-yl)-N-methylethanediamide], the IC50 was less than 10 nM.
As for `Cc1cc(CNC(=O)c2nc3n(c(=O)c2O)CCC2CCC3(NC(=O)C(=O)N(C)C)C2)ccc1F` (stereo not drawn) [Example 212, Ethanediamide, N′-[2-[[[(4-fluoro-3-methylphenyl)methyl]amino]carbonyl]-7,8,9,10-tetrahydro-3-hydroxy-4-oxo-8,11-methano-4H-pyrimido[1,2-a]azocin-11(6H)-yl]-N,N-dimethyl-], the figure is less than 10 nM; as for `Cc1cc(CNC(=O)c2nc3n(c(=O)c2O)CC2CCC3(NC(=O)C(C)n3cncn3)CC2)ccc1F` (stereo not drawn) [Example 291, 7,10-Ethanopyrimido[1,2-a]azepine-2-carboxamide, N-[(4-fluoro-3-methylphenyl)methyl]-4,6,7,8,9,10-hexahydro-3-hydroxy-4-oxo-10-[[1-oxo-2-(1H-1,2,4-triazol-1-yl)propyl]amino]-], less than 10 nM.
For the molecule `CN(C)C(=O)C(=O)NC12CCC(CC1)Cn1c2nc(C(=O)NCc2ccc(F)c(C#N)c2)c(O)c1=O` [Example 132, N′-(2-((3-Cyano-4-fluorobenzyl)carbamoyl)-3-hydroxy-4-oxo-6,7,8,9-tetrahydro-7,10-ethanopyrimido[1,2-a]azepin-10(4H)-yl)-N,N-dimethylethanediamide], the IC50 is less than 10 nM.
For the molecule `Cn1cncc1CN1CCN(C(=O)C(=O)NC23CCC(CC2)Cn2c3nc(C(=O)NCc3ccc(F)cc3)c(O)c2=O)CC1` [Example 136, N-(4-Fluorobenzyl)-3-hydroxy-10-(((4-((1-methyl-1H-imidazol-5-yl)methyl)-1-piperazinyl)(oxo)acetyl)amino)-4-oxo-4,6,7,8,9,10-hexahydro-7,10-ethanopyrimido[1,2-a]azepine-2-carboxamide], the IC50 was less than 10 nM.
For `CN(C)C(=O)C(=O)NC12CCC(CC1)Cn1c2nc(C(=O)NCc2ccccn2)c(O)c1=O` [Example 363], the IC50 lay in the range of 10 to 100 nM.
In the case of `COc1cc(CNC(=O)c2nc3n(c(=O)c2O)CC2CCC3(NC(=O)C(=O)N(C)C)CC2)ccc1F` [Example 133, N′-(2-((4-Fluoro-3-methoxybenzyl)carbamoyl)-3-hydroxy-4-oxo-6,7,8,9-tetrahydro-7,10-ethanopyrimido[1,2-a]azepin-10(4H)-yl)-N,N-dimethylethanediamide], the IC50 is less than 10 nM.
As for `O=C(O)C(=O)NC12CCC(CC1)Cn1c2nc(C(=O)NCc2ccc(F)cc2)c(O)c1=O` [Example 84, ((2-((4-Fluorobenzyl)carbamoyl)-3-hydroxy-4-oxo-6,7,8,9-tetrahydro-7,10-ethanopyrimido[1,2-a]azepin-10(4H)-yl)amino) (oxo)acetic acid], the figure is less than 10 nM; as for `CN(C(=O)c1cccnc1)C12CCC(CC1)Cn1c2nc(C(=O)NCc2ccc(F)cc2)c(O)c1=O` [Example 322, 7,10-Ethanopyrimido[1,2-a]azepine-2-carboxamide, N-[(4-fluorophenyl)methyl]-4,6,7,8,9,10-hexahydro-3-hydroxy-10-[methyl(3-pyridinylcarbonyl)amino]-4-oxo], less than 10 nM.
As to `CN(C)C(=O)C(=O)NC12CCC(CC1)Cn1c2nc(C(=O)NCc2ccc3nccn3c2)c(O)c1=O` [Example 244, Ethanediamide, N,N-dimethyl-N′-[6,7,8,9-tetrahydro-3-hydroxy-2-[[(imidazo[1,2-a]pyridin-6-ylmethyl)amino]carbonyl]-4-oxo-7,10-ethanopyrimido[1,2-a]azepin-10(4H)-yl]-], the IC50 was 10 to 100 nM.
For `CN(C)C(=O)C(=O)NC12CCC(CC1)Cn1c2nc(C(=O)NCc2ccccc2C(F)(F)F)c(O)c1=O` [Example 377] the value was 10 to 100 nM.
